Tests used:
Assay in all cases: Cytostatic cell culture assay (GI50), SRB
Assay type in all cases: cell-based
A549 = conditions: Homo sapiens, A549, 120 h; 5 days incubation
Text: (§1) The assay is based on quantification of cell counts by a colorimetric detection of the cell associated proteins. The assay relies on the ability of sulforhodamine B (SRB) to bind to protein components of cells that have been fixed to tissue-culture plates by trichloroacetic acid (TCA). SRB is a bright-pink aminoxanthene dye with two sulfonic groups that bind to basic amino-acid residues under mild acidic conditions, and dissociate under basic conditions. As the binding of SRB is stoichiometric, the amount of dye extracted from stained cells is directly proportional to the cell mass.
(§2) Cell lines: All cell lines were obtained from ATCC (Manassas, Va.). Cultivation media containing Glutamax, and trypsin were purchased from Invitrogen (Carlsbad, Calif.). Doxorubicin, Clofarabine, TCA and SRB were from Sigma-Aldrich (St. Louis, Mo.). Gemcitabine was obtained from Moravek Biochemicals (Brea, Calif.)
(§3) • 1. Trypsinize the sub-confluent cells, count them, and adjust the cell concentrations according to the cell counts listed in Table 1. • 2. Distribute the cells into the 96-well plates in 150 μL of media. Incubate the plates overnight in humidified CO2 incubator at 37° C. • 3. Fix one plate of each cell line with TCA. Discard the cultivation media from the plates by flicking them gently and add 100 ul cold 10% (vol/vol) TCA to each well. Incubate the plates at 4 degree refrigerator for 1 hour. Discard TCA from the plates by flicking them gently. Rinse plates four times in a washing basin containing tap water. Store the plates at room temperature. These plates represent cell counts on day zero. • 4. Prepare a set of medium solutions containing various concentrations of tested compounds by making 5-fold serial dilutions in 96-well plate. Add 50 μL of the diluted compounds per well. Include controls with untreated cells and cells treated with doxorubicin, clofarabine and gemcitabine. • 5. Incubate the plates for 5 days at 37° C. • 6. Fix the plates with TCA. Discard the cultivation media from the plates by flicking them gently and add 100 ul cold 10% (vol/vol) TCA to each well. Incubate the plates at 4 degree refrigerator for 1 hour. Discard TCA from the plates by flicking them gently. Rinse plates four times in a washing basin containing tap water. • 7. Remove excess water by tapping the plates face down, gently on a paper towel. Allow the plates to air-dry at room temperature. • 8. Add 100 ul of 0.057% SRB solution in 1% (vol/vol) acetic acid to each well of the plates fixed with TCA on day zero and five. Leave at room temperature for 30 minutes. • 9. Flick the plates gently to discard SRB. Rinse the plates four times with 1% (vol/vol) Acetic Acid. • 10. Store the plates at 37 degree incubator to facilitate faster drying. • 11. Once the plates are completely dry, add 200 ul of 10 mM Tris base solution (pH 10.5) to each well. Leave at room temperature for 30 minutes for SRB to solubilize. • 12. Measure the OD at 500 nm in a microplate reader • 13. Calculate the percentage of cell-growth inhibition using the next formula: % of control cell growth=100×(ODsample−mean ODday0)/(ODneg control−mean ODday0)
(§4) For GI50 determination, plot a dose-response curve between the compound concentration and percent of growth inhibition. GI50 values can be derived by fitting dose-response curves using sigmoidal dose response equation.

BT-549 = conditions: Homo sapiens, BT-549, 120 h; 5 days incubation
Text: as §1, §2, §3, §4

Du-145 = conditions: Homo sapiens, DU-145, 120 h; 5 days incubation
Text: as §1, §2, §3, §4

HCT-116 = conditions: Homo sapiens, HCT-116, 120 h; 5 days incubation
Text: as §1, §2, §3, §4

HCT-15 = conditions: Homo sapiens, HCT-15, 120 h; 5 days incubation
Text: as §1, §2, §3, §4

Hs-578 = conditions: Hs578, 120 h; 5 days incubation
Text: as §1, §2, §3, §4

NCI-H23 = conditions: Homo sapiens, NCI-H23, 120 h; 5 days incubation
Text: as §1, §2, §3, §4

PC3 = conditions: Homo sapiens, PC-3, 120 h; 5 days incubation
Text: as §1, §2, §3, §4

| GI50 (A549) | GI50 (BT-549) | GI50 (Du-145) | GI50 (HCT-116) | GI50 (HCT-15) | GI50 (NCI-H23) | GI50 (PC3) | SMILES | GI50 (Hs-578) |
| --- | --- | --- | --- | --- | --- | --- | --- | --- |
| 195 nM | 301 nM | 1 nM | 133 nM | 6400 nM | 11 nM | 10 nM | CCCCCOc1nc(N)nc2c1ncn2CCOCP(=O)(N[C@@H](C)C(=O)OCC)N[C@@H](C)C(=O)OCC [Example 41] | 62 nM |
| 1710 nM | 104 nM | 10 nM | 430 nM | 10000 nM | 15 nM | 237 nM | CCOC(=O)[C@H](C)NP(=O)(COCCn1cnc2c(OC3CC3)nc(N)nc21)N[C@@H](C)C(=O)OCC [Example 42] | 162 nM |
| 451 nM | 269 nM | 8 nM | 372 nM | 8300 nM | 22 nM | 113 nM | CCOC(=O)[C@H](C)NP(=O)(COCCn1cnc2c(OC3CCC3)nc(N)nc21)N[C@@H](C)C(=O)OCC [Example 45] | 174 nM |
| 4090 nM | 1710 nM | 108 nM | 2520 nM | > 10000 nM | 61 nM | 372 nM | CCOC(=O)[C@H](C)NP(=O)(COCCn1cnc2c(OCCOC)nc(N)nc21)N[C@@H](C)C(=O)OCC [Example 48] | 976 nM |
| 368 nM | 50 nM | 1 nM | 109 nM | 5100 nM | 2 nM | 3 nM | CCCCOC(=O)[C@H](C)NP(=O)(COCCn1cnc2c(OCCOC)nc(N)nc21)N[C@@H](C)C(=O)OCCCC [Example 49] | 25 nM |

Further lines, the compound ahead of its results:

| SMILES | GI50 (A549) | GI50 (BT-549) | GI50 (Du-145) | GI50 (HCT-116) | GI50 (HCT-15) | GI50 (NCI-H23) | GI50 (PC3) | GI50 (Hs-578) |
| --- | --- | --- | --- | --- | --- | --- | --- | --- |
| CCOC(=O)[C@@H]1CCCN1P(=O)(COCCn1cnc2c(OC3CCCCC3)nc(N)nc21)N1CCC[C@H]1C(=O)OCC [Example 40] | 8800 nM | 1780 nM | 74 nM | 2440 nM | > 10000 nM | 252 nM | 109 nM | 276 nM |
| CCOC(=O)[C@@H]1CCCC1P(=O)(COCCn1cnc2c(OC3CC3)nc(N)nc21)N1CCC[C@H]1C(=O)OCC (some centres unmarked) [Example 44] | 1250 nM | 16 nM | 3 nM | 154 nM | 9100 nM | 227 nM | 183 nM | 26 nM |
| CCOC(=O)[C@H](C)NP(=O)(COCCn1cnc2c(OC3CCCC3)nc(N)nc21)N[C@@H](C)C(=O)OCC [Example 46] | 474 nM | 286 nM | 17 nM | 269 nM | 6300 nM | 23 nM | 85 nM | 96 nM |
| CCCCOC(=O)[C@H](C)NP(=O)(COCCn1cnc2c(OC3CCCC3)nc(N)nc21)N[C@@H](C)C(=O)OCCCC [Example 47] | 103 nM | 326 nM | 1 nM | 55 nM | 1810 nM | 4 nM | 8 nM | 50 nM |
| CCOC(=O)[C@@H]1CCCN1P(=O)(COCCn1cnc2c(NC3CC3)nc(N)nc21)N1CCC[C@H]1C(=O)OCC [Example 50] | 3700 nM | 1620 nM | 250 nM | 3070 nM | > 10000 nM | 118 nM | 608 nM | 308 nM |

Reference: patent US8163718B2, “Nucleoside analogues containing phosphonate or phosphonamide groups” (Gilead Sciences, Inc., priority 2008, dated 2012)
